Measurements taken from US20080207714A1, “Diagnosis And Treatment Of Breast Cancer” (THE REGENTS OF THE UNIVERSITY OF MICHIGAN, priority 2006, published 2008).

Tests used:
Format in all cases: cell-based
Conditions in all cases: reduction of AT-mediated invasion, losartan 2 uM
[1] = system: BT549 breast cancer cells; test: Matrigel cell invasion assay, BT549
[2] = system: 578T breast cancer cells; test: Matrigel cell invasion assay, 578T
[3] = system: MCF-7 breast cancer cells; test: Matrigel cell invasion assay, MCF7
[4] = system: H16N2 immortalized benign breast epithelial cell line; test: Matrigel cell invasion assay, H16N2
[5] = system: DU145 prostate cancer cells; test: Matrigel cell invasion assay, DU145

CCCCc1nc(Cl)c(CO)n1Cc1ccc(-c2ccccc2-c2nn[nH]n2)cc1 [Lo, Losartan]
Lo (2 uM) % Red. [1]: 72.4%
Lo (2 uM) % Red. ([1]; listed as losartan): 72%
Lo (2 uM) % Red. [2]: 67.9%
Lo (2 uM) % Red. ([2]; listed as losartan): 68%
Lo (2 uM) % Red. [3]: 56.7%
Lo (2 uM) % Red. [4]: 16.7%
Lo (2 uM) % Red. [5]: 35.0%
